Laboratory results as given in patent US12123028B2, “Viral inactivation methods for continuous manufacturing of antibodies” (Bayer HealthCare LLC, priority 2018, dated 2024).

Legend:
[1] = test system: X-MuLV; experiment: Dual X-MuLV inactivation by low pH and detergent in mAb protein A eluate, remaining infectivity by TCID50 assay on PG-4 cells; assay type: cell-based, Xenotropic Murine Leukemia Virus; conditions: for required inactivation time compared with 0.2% Tween 80 / time required for X-MuLV inactivation: 16° C.; for treatment time to completely inactivate X-MuLV: 18° C.
Method: […] The pH adjusted eluates were then filtered by a 0.22 um filter. Various volumes of 5% detergent stock solution were then added to the filtered protein A eluates. The low pH protein A eluates containing Mega-10, Tween 80 or Tween 20 were pre-incubated at a 16° C. water bath prior to spiking with X-MuLV at a 1:20 ratio. After a thorough mixing, an aliquot of sample was removed immediately and neutralized with 1 M Tris buffer to stop low pH viral inactivation, then immediately quenched with diluent at 1:12 for Mega-10 or at 1:100 for Tween 20 and Tween 80 to stop viral inactivation by the detergent. The collected sample was designated as a time-zero reference. The remaining spiked eluate was returned to the water bath and the samples were collected at indicated times to evaluate the viral inactivation kinetics. The remaining X-MuLV infectivity in the samples post-inactivation treatment was determined by a TCID50 assay that is an endpoint dilution assay to quantify the amount of virus required to produce a cytopathic effect in 50% of inoculated tissue culture cells. Virus titers were estimated using the Spearman-Karber method and reported as TCID50/mL with a calculated 95% confidence interval (CI). Briefly, a sufficient number of 96-well plates with PG-4 (feline S^+L^−, ATCC#CRL-2032) cells were prepared the day before starting the viral inactivation experiments and incubated overnight in a 37° C. humidified CO2 incubator. A set of ten 3.2 fold dilution of the diluted positive control (1:100) and viral inactivated samples were prepared in a dilution block. Each set of the 11 serial dilutions of the samples were inoculated correspondingly onto wells (100 μL per well) of the first 11 columns in a 96-well plate that had been pre-seeded with PG-4 cells. The 12th column in the same plate was inoculated with the corresponding diluent to serve as non-virus negative control. The positive control was prepared by spiking the filtered neutralized protein A eluate with X-MuLV at a 1:20 ratio. The inoculated plates were then incubated in a 37° C. humidified CO2 incubator for approximate 2 hours. A volume of 100 uL of 2× assay medium (92% McCoy's 5A medium, 4% FBS, 2% Penicillin/Streptomycin, 2% L-Glutamine) was added to each well of the plates at the end of incubation. The plates were then returned to the same incubator, and continued incubation for 6 days. Each well of the plates were scored under a microscope for the presence of cytopathic effect (CPE) and the results were recorded in a scoring sheet. Virus titers were then estimated using the Spearman-Karber method and reported as TCID50/mL with a calculated 95% confidence interval (CI).

[2] = test system: retroviruses; conditions: Triton X-100 ≥0.5%; hold time ≥60 minutes; 15-25° C.; pH 6.0-8.0; clarified, cell-free intermediate of mAb or IgG Fc fusion protein; cited from earlier work

Molecule	time needed for inactivating X-MuLV to the level below the detection limit ([1]; dual treatment: mAb2 protein A eluate pH 4.05 with 0.5% Tween 80, 16° C. (120 minutes by pH 4.0 alone at 18° C.)) [min]	incubation time needed for inactivation of X-MuLV to the level below the detection limit ([1]; dual treatment: mAb3 (IgG2) protein A eluate pH 3.97 with 0.5% Tween 80, 16° C. (120 minutes by low pH alone)) [min]	required inactivation time ([1]; dual treatment: mAb3 protein A eluate pH 3.99 with 0.2% Tween 80, 16° C. (120 minutes without detergent)) [min]	required inactivation time compared with 0.2% Tween 80 ([1]; dual treatment: mAb3 protein A eluate pH 3.99 with 0.3% Tween 80)	required inactivation time compared with 0.2% Tween 80 ([1]; dual treatment: mAb3 protein A eluate pH 3.99 with 0.5% Tween 80)	time required for X-MuLV inactivation ([1]; mAb3 protein A eluate containing 0.1% Tween 80 at pH 3.7) [min]	time required for X-MuLV inactivation ([1]; mAb3 protein A eluate containing 0.1% Tween 80 at pH 3.8) [min]	time required for X-MuLV inactivation ([1]; mAb3 protein A eluate containing 0.1% Tween 80 at pH 3.9) [min]	time required for X-MuLV inactivation ([1]; mAb3 protein A eluate containing 0.1% Tween 80 at pH 4.0) [min]	treatment time to completely inactivate X-MuLV ([1]; mAb4 protein A eluate at pH 4.11 containing 1% Tween 80) [h]	treatment time to completely inactivate X-MuLV ([1]; mAb4 protein A eluate at pH 4.20 containing 1% Tween 80) [h]	treatment time to completely inactivate X-MuLV ([1]; mAb4 protein A eluate at pH 4.30 containing 1% Tween 80) [h]	LRF of retroviral inactivation [2]
CCCCCCCC/C=C\CCCCCCCC(=O)OCCOCC(OCCO)C1OCC(OCCO)C1OCCO (stereo not shown) [Tween 80]	10	5	5	no further reducing of time	no further reducing of time	0	1	2.5	10	1	3	4	–
Triton X-100	–	–	–	–	–	–	–	–	–	–	–	–	≥ 4.0
